Laboratory results taken from US7160903B2, “Sulfonylaminocarboxylic acids” (Sanofi-Aventis Deutschland GmbH, priority 1997, dated 2007).

Experiments:
[1] = molecular target: T1, neutrophil collagenase (MMP-8) (Homo sapiens, UniProt P22894); experiment: Enzymatic activity of the catalytic domain of neutrophil collagenase (fluorogenic substrate); type: biochemical; conditions: pH=6.5, 15 min preincubation, fluorescence 328 nm (ex)/393 nm (em), read-out: Neutr. collagenase IC50
T1 construct: enzymatic activity of the catalytic domains of human stromelysin and of neutrophil collagenase; made in house
Method: (§1) Preparation and determination of the enzymatic activity of the catalytic domains of human stromelysin and of neutrophil collagenase:
(§2) The enzymes stromelysin (MMP-3) and neutrophil collagenase (MMP-8) were prepared according to Ye et al. (Biochemistry; 31 (1992) pages 11231–11235). To measure the enzyme activity or the enzyme inhibitor action, 70 μl of buffer solution and 10 μl of enzyme solution are incubated for 15 min with 10 μl of a 10% strength (v/v) aqueous dimethyl sulfoxide solution, which optionally contains the enzyme inhibitor. After addition of 10 μl of a 10% strength (v/v) aqueous dimethyl sulfoxide solution which contains 1 mmol/L of the substrate, the enzyme reaction is monitored by fluorescence spectroscopy (328 nm (ex)/393 nm(em)). The enzyme activity is shown as the extinction increase/min. The IC50 values listed in Table 2 are determined as those inhibitor concentrations which in each case led to a 50% inhibition of the enzyme.
(§3) The buffer solution contains 0.05% Brij (Sigma, Deisenhofen, Germany) and also 0.1 mol/L Tris/HCl, 0.1 mol/L NaCl, 0.01 mol/L CaCl2 and 0.1 mol/L piperazine-N,N′-bis[2-ethanesulfonic acid] (pH=6.5). The enzyme solution contains 5 μg/ml of one of the enzyme domains prepared according to Ye et al. The substrate solution contains 1 mmol/L of the fluorogenic substrate (7-methoxycoumarin-4-yl)acetyl-Pro-Leu-Gly-Leu-3-(2′,4′-dinitrophenyl)-L-2,3-diaminopropionyl-Ala-Arg-NH2 (Bachem, Heidelberg, Germany).

stromelysin (MMP-3) = molecular target: T2, stromelysin (MMP-3) (Homo sapiens, UniProt P08254); experiment: Enzymatic activity of the catalytic domain of human stromelysin (fluorogenic substrate); type: biochemical; conditions: pH=6.5, 15 min preincubation, fluorescence 328 nm (ex)/393 nm (em)
T2 construct: enzymatic activity of the catalytic domains of human stromelysin and of neutrophil collagenase; made in house
Method: as §1, §2, §3

T1 sequence (P22894 100-262 limits assumed): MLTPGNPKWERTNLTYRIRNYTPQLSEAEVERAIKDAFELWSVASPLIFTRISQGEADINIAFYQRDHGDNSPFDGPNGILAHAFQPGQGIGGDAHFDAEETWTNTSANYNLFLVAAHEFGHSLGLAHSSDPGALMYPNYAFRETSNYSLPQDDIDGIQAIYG
T2 sequence (P08254 100-272 limits assumed): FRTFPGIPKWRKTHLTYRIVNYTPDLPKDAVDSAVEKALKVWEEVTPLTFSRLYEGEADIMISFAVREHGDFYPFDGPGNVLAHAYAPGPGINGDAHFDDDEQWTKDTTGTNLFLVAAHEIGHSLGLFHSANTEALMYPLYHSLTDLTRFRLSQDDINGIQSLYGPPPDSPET

Row | IC50 [1] [nM] | IC50 (stromelysin (MMP-3)) [nM] | melting point | Compound
1 | 10 | 100 |  | C[S+]([O-])CC[C@@H](NS(=O)(=O)c1ccc(-c2ccc(Cl)cc2)cc1)C(=O)O (stereo partly shown) [Example 15]
2 | 10 | 200 |  | O=C(O)C(NS(=O)(=O)c1ccc(-c2ccc(Cl)cc2)cc1)C(O)c1cccs1 (stereo not shown) [Example 36]
3 | 40 | 200 |  | O=C(O)[C@@H](CO)NS(=O)(=O)c1ccc(-c2ccc(Cl)cc2)cc1 [Example 7]
4 | 4 | 10 | 238 to 239 °C | O=C(CCC(NS(=O)(=O)c1ccc(-c2ccc(Cl)cc2)cc1)C(=O)O)Nc1ccccc1 (racemic) [Example 69]
5 | 10 | 300 | > 258 °C (dec.) | O=C(CC[C@H](NS(=O)(=O)c1ccc(-c2ccccc2)cc1)C(=O)O)Nc1ccc(F)cc1 [Example 91]
6 | 20 | 200 |  | O=C(O)C(NS(=O)(=O)c1ccc(-c2ccc(Cl)cc2)cc1)C(O)c1ccccc1 (stereo not shown) [Example 34]
7 | 5 | 40 |  | CP(=O)(O)CC[C@H](NS(=O)(=O)c1ccc(-c2ccc(Cl)cc2)cc1)C(=O)O [Example 104]
8 | 7 | 70 |  | CS(=O)(=O)CC[C@@H](NS(=O)(=O)c1ccc(-c2ccc(Cl)cc2)cc1)C(=O)O [Example 16]
9 | 600 | 1000 |  | O=C(c1ccccc1)c1ccc(C[C@@H](NS(=O)(=O)c2ccc(-c3ccc(Cl)cc3)cc2)C(=O)O)cc1 [Example 23]
10 | 9 | 80 |  | O=C(O)[C@@H](Cc1c[nH]c2ccccc12)NS(=O)(=O)c1ccc(-c2ccc(Cl)cc2)cc1 [Example 29, (R)-N-(4-Chlorobiphenylsulfonyl)tryptophan]
11 | 20 | 600 | > 245 °C (dec.) | O=C(CC[C@H](NS(=O)(=O)c1ccc(-c2ccccc2)cc1)C(=O)O)Nc1ccc(F)c(Cl)c1 [Example 96]
12 | 40 | 200 |  | O=C(O)[C@H](CSCc1ccccc1)NS(=O)(=O)c1ccc(-c2ccc(Cl)cc2)cc1 [Example 32]
13 | 60 | 300 |  | O=C(O)[C@@H](Cc1csc2ccccc12)NS(=O)(=O)c1ccc(-c2ccc(Cl)cc2)cc1 [Example 28]
14 | 10 | 30 |  | O=C(O)C(CCc1c[nH]c2ccccc12)NS(=O)(=O)c1ccc(-c2ccc(Cl)cc2)cc1 (racemic) [Example 105]
15 | 7 | 100 |  | O=C(O)C(Cc1cccnc1)NS(=O)(=O)c1ccc(-c2ccc(Cl)cc2)cc1 (racemic) [Example 88]
16 | 10 | 90 |  | CSCC[C@@H](NS(=O)(=O)c1ccc(-c2ccc(Cl)cc2)cc1)C(=O)O [Example 10]
17 | 30 | 200 |  | O=C(C[C@H](NS(=O)(=O)c1ccc(-c2ccc(Cl)cc2)cc1)C(=O)O)OCc1ccccc1 [Example 41]
18 | 5 | 50 |  | NC(=O)CC[C@@H](NS(=O)(=O)c1ccc(-c2ccc(Cl)cc2)cc1)C(=O)O [Example 51]
19 | 20 | 100 |  | CS(=O)(=O)CC[C@H](NS(=O)(=O)c1ccc(-c2ccc(Cl)cc2)cc1)C(=O)O [Example 17]
20 | 40 | 200 |  | O=C(O)[C@@H](CCc1ccccc1)NS(=O)(=O)c1ccc(-c2ccc(Cl)cc2)cc1 [Example 25]
21 | 10 | 90 |  | NC(=O)C[C@@H](NS(=O)(=O)c1ccc(-c2ccc(Cl)cc2)cc1)C(=O)O [Example 44]
22 | 30 | 400 |  | O=C(O)C[C@H](NS(=O)(=O)c1ccc(-c2ccc(Cl)cc2)cc1)C(=O)OCc1ccccc1 [Example 42]

The next lines start with the compound.

Row | Compound | IC50 [1] [nM] | IC50 (stromelysin (MMP-3)) [nM] | melting point
23 | C=CC(NS(=O)(=O)c1ccc(-c2ccc(Cl)cc2)cc1)C(=O)O (racemic) [Example 6] | 20 | 200 | 
24 | O=C(O)CCN(CC(=O)O)S(=O)(=O)c1ccc(Oc2ccc(Cl)cc2)cc1 [Example 45] |  |  | 169 to 171 °C
25 | N#Cc1ccc(NC(=O)CC[C@H](NS(=O)(=O)c2ccc(-c3ccccc3)cc2)C(=O)O)cc1 [Example 86] | 10 | 300 | 220 °C
26 | O=C(CC[C@H](NS(=O)(=O)c1ccc(-c2ccc(N3CCCC3)cc2)cc1)C(=O)O)Nc1ccc(F)cc1 [Example 90] | 2 | 10 | > 245 °C (dec.)
27 | O=C(CC[C@H](NS(=O)(=O)c1ccc(-c2ccccc2)cc1)C(=O)O)Nc1ccncc1 [Example 97] | 30 | 1000 | > 290 °C (dec.)
28 | CN(C)c1ccc(-c2ccc(S(=O)(=O)N[C@@H](CCC(=O)Nc3ccccc3)C(=O)O)cc2)cc1 [Example 81] | 2 | 10 | 240.5 to 241.5 °C (dec.)
29 | O=C(CCC(NS(=O)(=O)c1ccc(-c2ccccc2)cc1)C(=O)O)Nc1ccccc1 (racemic) [Example 47] |  |  | 227 to 230 °C
30 | CSCC[C@H](NC(=O)CC[C@H](NS(=O)(=O)c1ccc(-c2ccc(N(C)C)cc2)cc1)C(=O)O)C(=O)O [Example 62] | 2 | 7 | 121 °C
31 | O=C(O)[C@H]1C[C@@H](O)CN1S(=O)(=O)c1ccc(-c2ccc(Cl)cc2)cc1 [Example 2, (2R)-1-(4-Chlorobiphenylsulfonyl)-4-cis-hydroxyproline] | 90 | 100 | 
32 | O=C(O)C[C@@H](C(=O)O)N(Cc1ccncc1)S(=O)(=O)c1ccc(-c2ccccc2)cc1 [Example 43] |  |  | 105 °C
33 | O=C(O)C(CSC1=NCCS1)NS(=O)(=O)c1ccc(-c2ccc(Cl)cc2)cc1 (racemic) [Example 19] | 50 | 500 | 
34 | CN(C)c1ccc(-c2ccc(S(=O)(=O)N[C@@H](CCC(N)=O)C(=O)O)cc2)cc1 [Example 49] |  |  | 213 to 215 °C
35 | O=C(O)CC[C@H](NS(=O)(=O)c1ccc(-c2ccccc2)cc1)C(=O)O [Example 60] | 20 | 600 | 145 to 146 °C
36 | COC(=O)c1ccc(NC(=O)CC[C@H](NS(=O)(=O)c2ccc(-c3ccccc3)cc2)C(=O)O)cc1 [Example 84] | 2 | 5000 | 245 to 245.5 °C
37 | NNC(=O)CC[C@H](NS(=O)(=O)c1ccc(-c2ccccc2)cc1)C(=O)O [Example 59] |  |  | 205 to 207 °C
38 | O=C(CC[C@H](NS(=O)(=O)c1ccc(-c2ccccc2)cc1)C(=O)O)N[C@@H](Cc1ccccc1)C(=O)O [Example 92] | 4 | 30 | 123.5 to 124.5 °C

Row | Compound | IC50 [1] [nM] | IC50 (stromelysin (MMP-3)) [nM] | melting point
39 | NC(=O)CC[C@@H](NS(=O)(=O)c1ccc(-c2ccccc2)cc1)C(=O)O [Example 72] | 20 | 600 | 
40 | O=C(O)C[C@@H](NS(=O)(=O)c1ccc(-c2ccccc2)cc1)C(=O)O [Example 38] |  |  | > 55 °C
41 | CN(C)c1ccc(-c2ccc(S(=O)(=O)N[C@H](CCC(=O)O)C(=O)O)cc2)cc1 [Example 46] |  |  | 165 °C
42 | CSCC[C@@H](NS(=O)(=O)c1ccc(-c2ccccn2)s1)C(=O)O [Example 12] |  |  | 115 to 125 °C
43 | O=C(O)[C@H](CCC(=O)N1CCc2ccccc21)NS(=O)(=O)c1ccc(-c2ccccc2)cc1 [Example 100] | 20 |  | 182.5 to 183.5 °C
44 | CN(CC(=O)O)S(=O)(=O)c1ccc(Oc2ccc(Cl)cc2)cc1 [Example 4] |  |  | 128 to 130 °C
45 | COc1ccc(CC(NS(=O)(=O)c2ccc(-c3ccc(N(C)C)cc3)cc2)C(=O)O)cc1OC (racemic) [Example 24] |  |  | 230 °C
46 | O=C(O)[C@H](CCC(=O)N1CCc2ccccc21)NS(=O)(=O)c1ccc(-c2ccc(N3CCCC3)cc2)cc1 [Example 101] |  |  | > 130 °C (dec.)
47 | CSCC[C@@H](NS(=O)(=O)c1ccc(-c2ccon2)s1)C(=O)O [Example 13] |  |  | 70 to 76 °C
48 | O=C(O)C[C@H](NS(=O)(=O)c1ccc(-c2ccccc2)cc1)C(=O)O [Example 37] |  |  | 186.7 °C
49 | O=C(O)[C@@H]1CN1S(=O)(=O)c1ccc(-c2ccccc2)cc1 (stereo partly shown) [Example 64] |  |  | 138 to 139 °C
50 | CN(C)c1ccc(-c2ccc(S(=O)(=O)NC(CCC(=O)Nc3ccccc3)C(=O)O)cc2)cc1 (racemic) [Example 48] |  |  | 212 to 214 °C
51 | O=C(O)C(NS(=O)(=O)c1ccc(-c2ccc(Cl)cc2)cc1)c1ccsc1 (racemic) [Example 26] | 40 | 400 | 
52 | O=C(CC[C@H](NS(=O)(=O)c1ccc(-c2ccccc2)cc1)C(=O)O)Nc1ccc(C(=O)O)cc1 [Example 50] |  |  | 266 °C
53 | O=C(O)[C@H](Cc1c[nH]cn1)NS(=O)(=O)c1ccc(Oc2ccccc2)cc1 [Example 30] |  |  | 183 to 185 °C
